Measured values taken from patent US20250243219A1, “MACROCYCLIC COMPOUNDS AND USES THEREOF” (Cypralis Limited, priority 2022, published 2025).

Tests used:
[1] = Blood-brain barrier penetration, intravenous dosing; format: in vivo, rodents (mice or rats); settings: 3 mg/kg intravenous; for Brain concentration / Plasma concentration: at 30 min.
Method: Test compounds were administered to rodents (mice or rats) either orally, subcutaneously or intravenously. To determine blood or plasma concentrations blood samples were taken at different time points and analysed for the concentration of test compound by LC/MS. Brain concentrations were measured by sacrificing animals and LC/MS analysis of brain homogenate.
The results for Compounds (2), (19), (6) and (27) are summarised in Table 6 showing concentrations of the Compounds in blood plasma and the brain.

[2] = target: cyclophilin A (Homo sapiens (Human), UniProt P62937); assay: Functional peptidyl prolyl isomerase (PPIase) spectrophotometric assay, cyclophilin A; format: biochemical; settings: first value of CypA/D cell
Procedure, shortened: (§1)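 Cuvette-based UV/Vis assay of PPIase-catalysed cis-to-trans isomerisation of a peptide substrate. First-order rate constants fitted to absorbance, background rate subtracted. Ki derived from rate constant versus inhibitor concentration, typically 6-point curves in duplicate.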

[3] = target: cyclophilin D (Homo sapiens (Human), UniProt P30405); assay: Functional peptidyl prolyl isomerase (PPIase) spectrophotometric assay, cyclophilin D; format: biochemical; settings: second value of CypA/D cell; read-out: Ki CypD
Procedure, shortened: as §1

[4] = test system: permeabilised HepG2 cells; assay: Calcium retention capacity (CRC) assay in permeabilised HepG2 cells (MPTP opening); format: cell-based, human; parameters: CRC [10 μM]: unit not given here; settings: compound at 10 μM; for CRC [10 μM]: digitonin permeabilised HepG2 cells; for CRC [10 μM] (ratio vs CsA): normalised to cyclosporin A, value in brackets
Procedure, shortened: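 Digitonin-permeabilised HepG2 cells received trains of calcium pulses (typically 5 μM) monitored with Calcium Green-5N until buffering failed, marking permeability transition. Runs with and without compound; calcium retained at 10 μM compound expressed as ratio versus cyclosporin A positive control.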

[5] = test system: SH-SY5Y cells; assay: Thapsigargin treated cell death assay in SH-SY5Y cells; format: cell-based, human; settings: compound at 10 μM; positive = protection from cell death, negative = compound toxicity
Procedure, shortened: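 SH-SY5Y neuroblastoma cells given compound (typically 1, 3 and 10 μM, triplicate) 30 min before thapsigargin, with cyclosporin A (3 and 10 μM) as positive control. Cell death read kinetically over 24 h by CellTox Green DNA-binding fluorescence; values are % recovery at 10 μM, usually at 8 h, positive meaning protection.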

Chain of cyclophilin D (P30405 30-207, species assumed): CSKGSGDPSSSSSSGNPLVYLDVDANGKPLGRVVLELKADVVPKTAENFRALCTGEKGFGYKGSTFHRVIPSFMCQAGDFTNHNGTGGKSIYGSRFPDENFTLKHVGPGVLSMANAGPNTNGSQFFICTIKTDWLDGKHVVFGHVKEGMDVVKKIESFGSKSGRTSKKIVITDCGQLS
Chain of cyclophilin A (P62937 whole entry, species assumed): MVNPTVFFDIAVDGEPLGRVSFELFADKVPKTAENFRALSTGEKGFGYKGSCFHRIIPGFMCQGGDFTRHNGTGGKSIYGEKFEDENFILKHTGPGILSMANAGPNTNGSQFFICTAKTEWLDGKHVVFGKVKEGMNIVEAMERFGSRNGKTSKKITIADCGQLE

Blood-brain barrier passage [1]	Brain concentration [1]	Plasma concentration [1]	Ki [2]	Ki [3]	Structure (SMILES)	CRC [10 μM] [4]	CRC [10 μM] (ratio vs CsA) [4]	SYSY [10 μM] % recovery [5]
passed the blood-brain barrier	285 ng/mL	1382 ng/mL			C[C@@H]1NC(=O)C(CCc2ccccc2)OC(=O)C(C)(C)/C=C/c2ccc3ccc(nc3c2)N(C)NC(=O)[C@@H]2CCCN(N2)C1=O (single isomer, unassigned) [(27)]			
passed the blood-brain barrier	116 ng/mL	74 ng/mL	23 nM	150 nM	CC(C)[C@@H]1OC(=O)C2(/C=C/c3ccc4ccc(nc4c3)N(C)N(C)C(=O)[C@@H]3CCCN(N3)C(=O)[C@H](C)NC1=O)COCOC2 [(19)]	30	0.77	
passed the blood-brain barrier	197 ng/mL	1216 ng/mL	> 10000 nM	> 10 nM	CC(C)[C@@H]1OC(=O)C(C)(C)C/C=C/c2ccc3ccc(nc3c2)N(C)NC(=O)[C@@H]2CCCN(N2)C(=O)[C@H](C)NC1=O [Compound (6)]			
			14 nM	21 nM	CC(C)[C@@H]1OC(=O)C(C)(C)/C=C/c2ccc3ccc(nc3c2)N(C)NC(=O)[C@@H]2CCCN(N2)C(=O)[C@H](CCC(=O)N2CCC(O)CC2)NC1=O [Compound (72)]	20	0.80	43%
			11 nM	42 nM	CC(C)[C@@H]1OC(=O)C(C)(C)/C=C/c2ccc3ccc(nc3c2)N(C)NC(=O)[C@@H]2CCCN(N2)C(=O)[C@H](CC2CCN(C)CC2)NC1=O [Compound (73)]	15	0.75	43%
			5.6 nM	6.3 nM	CC(C)[C@@H]1OC(=O)C(C)(C)/C=C/c2ccc3ccc(nc3c2)N(C)NC(=O)[C@@H]2CCCN(N2)C(=O)[C@H](Cc2ccccc2)NC1=O [Compound (76)]	33.9	0.97	27.6%
			8.9 nM	28 nM	CC(C)[C@@H]1OC(=O)C(C)(C)/C=C/c2ccc3ccc(nc3c2)N(C)NC(=O)[C@@H]2CCCN(N2)C(=O)[C@H](Cc2ccc(CN(C)C)cc2)NC1=O [Compound (79)]	28.33	0.85	1.8%
			4 nM	22 nM	CC(C)[C@@H]1OC(=O)C(C)(C)/C=C/c2ccc3ccc(nc3c2)N(C)NC(=O)[C@@H]2CCCN(N2)C(=O)[C@H](C2CC2)NC1=O [Compound (80)]	25	1.00	29.2%
			9.7 nM	9.4 nM	C[C@@H]1NC(=O)[C@H](Cc2ccccc2Cl)OC(=O)C(C)(C)/C=C/c2ccc3ccc(nc3c2)N(C)NC(=O)[C@@H]2CCCN(N2)C1=O [Compound (81)]	20	0.67	44%
